The experiment addresses T1, Recombinant full length human OGA enzyme (Homo sapiens, UniProt O60502).
T1 construct: Recombinant full length human OGA enzyme was purchased from Origene; purchased Origene
T1 sequence (O60502 1-916): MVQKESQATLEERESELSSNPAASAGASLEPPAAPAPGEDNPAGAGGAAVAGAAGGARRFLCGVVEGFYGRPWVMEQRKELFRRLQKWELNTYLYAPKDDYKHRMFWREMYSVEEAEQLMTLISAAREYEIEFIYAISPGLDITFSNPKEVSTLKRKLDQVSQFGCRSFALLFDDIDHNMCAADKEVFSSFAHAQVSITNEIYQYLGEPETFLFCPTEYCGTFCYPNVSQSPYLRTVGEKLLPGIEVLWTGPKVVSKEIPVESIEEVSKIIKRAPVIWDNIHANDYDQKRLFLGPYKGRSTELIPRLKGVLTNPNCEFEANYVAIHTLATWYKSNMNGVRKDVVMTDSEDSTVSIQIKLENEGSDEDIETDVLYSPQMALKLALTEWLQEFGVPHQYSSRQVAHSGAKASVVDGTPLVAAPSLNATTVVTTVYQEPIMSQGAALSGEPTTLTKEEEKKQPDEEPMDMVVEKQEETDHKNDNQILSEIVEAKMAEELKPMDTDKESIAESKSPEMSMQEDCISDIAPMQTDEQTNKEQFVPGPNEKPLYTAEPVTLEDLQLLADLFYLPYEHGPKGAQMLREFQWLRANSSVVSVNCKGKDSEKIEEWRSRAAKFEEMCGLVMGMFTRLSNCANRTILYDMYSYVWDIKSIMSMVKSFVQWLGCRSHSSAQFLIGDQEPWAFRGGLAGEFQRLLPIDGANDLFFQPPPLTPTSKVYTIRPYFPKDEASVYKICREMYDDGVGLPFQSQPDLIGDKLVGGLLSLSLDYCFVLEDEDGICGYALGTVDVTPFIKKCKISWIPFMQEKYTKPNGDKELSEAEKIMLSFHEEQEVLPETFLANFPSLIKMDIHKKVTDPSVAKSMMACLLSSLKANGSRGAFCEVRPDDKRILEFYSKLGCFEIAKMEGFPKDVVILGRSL
Briefly: OGA enzyme inhibition biochemical assay. As to conditions: 1 nM OGA, 100 μM 4-MUGlcNAc (Km), pH 6.4, 90 minutes at room temperature, 10-point dose-response from 20 μM. The procedure: N-(5-(((2S,4R)-4-([1,2,4]triazolo[4,3-a]pyrazin-3-yloxy)-2-methylpyrrolidin-1-yl)methyl)-4-fluorothiazol-2-yl)acetamide: The title compound was prepared in an analogous manner as Example 172 from 3-bromo-[1,2,4]triazolo[4,3-a]pyrazine. LCMS (ESI): [M+H] 392. ^1H NMR (600 MHz, CHLOROFORM-d) δ 10.75 (br s, 1H), 9.04 (s, 1H), 9.03 (s, 1H), 7.24 (s, 1H), 4.99-5.06 (m, 1H), 4.01 (d, J=14.49 Hz, 1H), 3.64 (d, J=14.67 Hz, 1H), 3.40 (d, J=11.55 Hz, 1H), 2.75 (dd, J=5.78, 11.46 Hz, 1H), 2.61-2.72 (m, 2H), 2.32 (s, 4H), 1.84-1.92 (m, 1H), 1.30 (d, J=5.87 Hz, 4H). ^19F NMR (565 MHz, CHLOROFORM-d) 6-115.92 (br s, 1F). OGA Enzyme Inhibition Biochemical Assay
Recombinant full length human OGA enzyme was purchased from Origene. 4-MUGlCNAc substrate was purchased from Sigma. All other reagents were purchased from Sigma or Fisher. Assay buffer consists of the McIlvaine buffer system, pH 6.4 (0.2M Na2HPO4 mixed with 0.1M citric acid) and 0.01% BSA. Reactions consist of 1 nM OGA, 100 μM 4-MUGlcNAc (Km), and compound in a final volume of 10 μl. Reactions were incubated for 90 minutes at room temperature and quenched with 40 μl of 3M glycine, pH 10 and read on a Perkin Elmer Envision plate reader (Ex: 355 nm/Em: 460 nm). Compounds were tested with a 10-point dose-response starting from 20 μM with a 4-fold dilution. Data, as presented in Table 1 below, was fit using GraphPad Prism using a 4-parameter fit with variable slope.

A value given as a limit tells only on which side of the number the result lay.

The IC50 is the concentration that inhibits the measured activity by half.

In the case of `CC(=O)Nc1ncc(CN2C[C@H](Oc3ccc4c(Cl)nccc4c3)C[C@@H]2C)s1` [Example 1, N-(5-(((2S,4R)-4-((1-chloroisoquinolin-6-yl)oxy)-2-methylpyrrolidin-1-yl)methyl)thiazol-2-yl)acetamide], the IC50 is less than 1 nM. The result for `CC(=O)Nc1ncc(CN2C[C@H](Oc3ccc4cc(C(N)=O)ccc4n3)C[C@@H]2C)s1` [Example 2, 2-(((3R,5S)-1-((2-acetamidothiazol-5-yl)methyl)-5-methylpyrrolidin-3-yl)oxy)quinoline-6-carboxamide] reads less than 1 nM. The result for `CC(=O)Nc1ncc(CN2C[C@H](Oc3ncc4c(C)csc4n3)C[C@@H]2C)s1` [Example 3, N-(5-(((2S,4R)-2-methyl-4-((5-methylthieno[2,3-d]pyrimidin-2-yl)oxy)pyrrolidin-1-yl)methyl)thiazol-2-yl)acetamide] reads less than 1 nM.

Take `CC(=O)Nc1ncc(CN2C[C@H](Oc3ccc4sccc4n3)C[C@@H]2C)s1` [Example 4, N-(5-(((2S,4R)-2-methyl-4-(thieno[3,2-b]pyridin-5-yloxy)pyrrolidin-1-yl)methyl)thiazol-2-yl)acetamide]: the IC50 is less than 1 nM.

For the molecule `CC(=O)Nc1ncc(CN2C[C@H](Oc3ccnc4ccsc34)C[C@@H]2C)s1` [Example 5, N-(5-(((2S,4R)-2-methyl-4-(thieno[3,2-b]pyridin-7-yloxy)pyrrolidin-1-yl)methyl)thiazol-2-yl)acetamide], the 50% inhibitory concentration (IC50) is less than 1 nM. The figure for `CC(=O)Nc1ncc(CN2C[C@H](Oc3ccc4ccc(F)cc4n3)C[C@@H]2C)s1` [Example 6, N-(5-(((2S,4R)-4-((7-fluoroquinolin-2-yl)oxy)-2-methylpyrrolidin-1-yl)methyl)thiazol-2-yl)acetamide] is less than 1 nM; for `CC(=O)Nc1ncc(CN2C[C@H](Oc3cc4c(Cl)ccnc4cc3F)C[C@@H]2C)s1` [Example 7, N-(5-(((2S,4R)-4-((4-chloro-7-fluoroquinolin-6-yl)oxy)-2-methylpyrrolidin-1-yl)methyl)thiazol-2-yl)acetamide] it is less than 1 nM; for `CC(=O)Nc1ncc(CN2C[C@H](Oc3ccc4ccccc4n3)C[C@@H]2C)s1` [Example 8, N-(5-(((2S,4R)-2-methyl-4-(quinolin-2-yloxy)pyrrolidin-1-yl)methyl)thiazol-2-yl)acetamide] it is less than 1 nM. The result for `CC(=O)Nc1ncc(CN2C[C@H](Oc3cnc4cc(F)c(F)cc4n3)C[C@@H]2C)s1` [Example 9, N-(5-(((2S,4R)-4-((6,7-difluoroquinoxalin-2-yl)oxy)-2-methylpyrrolidin-1-yl)methyl)thiazol-2-yl)acetamide] reads less than 1 nM; that for `CC(=O)Nc1ncc(CN2C[C@H](Oc3ncc4c(n3)CCCC4)C[C@@H]2C)s1` [Example 10, N-(5-(((2S,4R)-2-methyl-4-((5,6,7,8-tetrahydroquinazolin-2-yl)oxy)pyrrolidin-1-yl)methyl)thiazol-2-yl)acetamide], less than 1 nM; that for `CC(=O)Nc1ncc(CN2C[C@H](Oc3nccc4ccsc34)C[C@@H]2C)s1` [Example 11, N-(5-(((2S,4R)-2-methyl-4-(thieno[2,3-c]pyridin-7-yloxy)pyrrolidin-1-yl)methyl)thiazol-2-yl)acetamide], less than 1 nM.

`CC(=O)Nc1ncc(CN2C[C@H](Oc3cc(C(F)(F)F)c4cn(C)nc4n3)C[C@@H]2C)s1` [Example 12, N-(5-(((2S,4R)-2-methyl-4-((2-methyl-4-(trifluoromethyl)-2H-pyrazolo[3,4-b]pyridin-6-yl)oxy)pyrrolidin-1-yl)methyl)thiazol-2-yl)acetamide]: the IC50 was less than 1 nM.

For the molecule `CC(=O)Nc1ncc(CN2C[C@H](Oc3cc(C)nc4ccccc34)C[C@@H]2C)s1` [Example 13, N-(5-(((2S,4R)-2-methyl-4-((2-methylquinolin-4-yl)oxy)pyrrolidin-1-yl)methyl)thiazol-2-yl)acetamide], the half-maximal inhibitory concentration (IC50) is less than 1 nM. The figure for `CC(=O)Nc1ncc(CN2C[C@H](Oc3ncnc4cc(OC(F)F)ccc34)C[C@@H]2C)s1` [Example 14, N-(5-(((2S,4R)-4-((7-(difluoromethoxy)quinazolin-4-yl)oxy)-2-methylpyrrolidin-1-yl)methyl)thiazol-2-yl)acetamide] is less than 1 nM; for `CCc1cc2c(O[C@@H]3C[C@H](C)N(Cc4cnc(NC(C)=O)s4)C3)nccc2o1` [Example 15, N-(5-(((2S,4R)-4-((2-ethylfuro[3,2-c]pyridin-4-yl)oxy)-2-methylpyrrolidin-1-yl)methyl)thiazol-2-yl)acetamide] it is less than 1 nM; for `CC(=O)Nc1ncc(CN2C[C@H](Oc3nccc4oc(C)cc34)C[C@@H]2C)s1` [Example 16, N-(5-(((2S,4R)-2-methyl-4-((2-methylfuro[3,2-c]pyridin-4-yl)oxy)pyrrolidin-1-yl)methyl)thiazol-2-yl)acetamide] it is less than 1 nM. The result for `CC(=O)Nc1ncc(CN2C[C@H](Oc3ccnc4cc(F)ccc34)C[C@@H]2C)s1` [Example 17, N-(5-(((2S,4R)-4-((7-fluoroquinolin-4-yl)oxy)-2-methylpyrrolidin-1-yl)methyl)thiazol-2-yl)acetamide] reads less than 1 nM. `CC(=O)Nc1ncc(CN2C[C@H](Oc3ccc4nnc(C(F)(F)F)n4n3)C[C@@H]2C)s1` [Example 18, N-(5-(((2S,4R)-2-methyl-4-((3-(trifluoromethyl)-[1,2,4]triazolo[4,3-b]pyridazin-6-yl)oxy)pyrrolidin-1-yl)methyl)thiazol-2-yl)acetamide]: the IC50 is less than 1 nM.

Regarding `CC(=O)Nc1ncc(CN2C[C@H](Oc3ccnc4ccccc34)C[C@@H]2C)s1` [Example 19, N-(5-(((2S,4R)-2-methyl-4-(quinolin-4-yloxy)pyrrolidin-1-yl)methyl)thiazol-2-yl)acetamide], the IC50 was found to be 1.3 nM.

In the case of `CC(=O)Nc1ncc(CN2C[C@H](Oc3nn4c(C(F)(F)F)nnc4c(C)c3C)C[C@@H]2C)s1` [Example 20, N-(5-(((2S,4R)-4-((7,8-dimethyl-3-(trifluoromethyl)-[1,2,4]triazolo[4,3-b]pyridazin-6-yl)oxy)-2-methylpyrrolidin-1-yl)methyl)thiazol-2-yl)acetamide], the half-inhibitory concentration (IC50) came out at 1.6 nM. As to `CC(=O)Nc1ncc(CN2C[C@H](Oc3cc(C(N)=O)nc4ccccc34)C[C@@H]2C)s1` [Example 21, 4-(((3R,5S)-1-((2-acetamidothiazol-5-yl)methyl)-5-methylpyrrolidin-3-yl)oxy)quinoline-2-carboxamide], the IC50 came to 1.9 nM. As to `CC(=O)Nc1ncc(CN2C[C@H](Oc3nccc4occc34)C[C@@H]2C)s1` [Example 22, N-(5-(((2S,4R)-4-(furo[3,2-c]pyridin-4-yloxy)-2-methylpyrrolidin-1-yl)methyl)thiazol-2-yl)acetamide], the 50% inhibitory concentration (IC50) turned out to be 2.1 nM. The result for `CC(=O)Nc1ncc(CN2C[C@H](Oc3ccnc4ccc(C)cc34)C[C@@H]2C)s1` [Example 23, N-(5-(((2S,4R)-2-methyl-4-((6-methylquinolin-4-yl)oxy)pyrrolidin-1-yl)methyl)thiazol-2-yl)acetamide] reads 2.4 nM; that for `CC(=O)Nc1ncc(CN2C[C@H](Oc3nccc4sccc34)C[C@@H]2C)s1` [Example 24, N-(5-(((2S,4R)-2-methyl-4-(thieno[3,2-c]pyridin-4-yloxy)pyrrolidin-1-yl)methyl)thiazol-2-yl)acetamide], 2.5 nM.

These data come from US12522595B2, “Bicyclic ether O-glycoprotein-2-acetamido-2-deoxy-3-D-glucopyranosidase inhibitors” (BIOGEN MA INC., priority 2019, dated 2026).
